Experimental data as given in patent US8796313B2, “Substituted dihydroisoindolones as allosteric modulators of glucokinase” (Janssen Pharmaceutica N.V., priority 2005, dated 2014).

Assays:
[1] = target: T1, human liver Glucokinase (GK) (Homo sapiens, UniProt P35557); assay: Glucokinase enzyme assay, liver GK; type: biochemical; settings: for EC50: concentration that produces 50% activation above vehicle control; for EC100%: concentration that produces 100% activation above vehicle control; for activation at 50 µM: increase in GK activity above vehicle control, compound 50 μM, 12 mM glucose
T1 construct: His6; made in house; host or cells: Escherichia coli
T1 sequence (P35557 1-466 isoform P35557-2): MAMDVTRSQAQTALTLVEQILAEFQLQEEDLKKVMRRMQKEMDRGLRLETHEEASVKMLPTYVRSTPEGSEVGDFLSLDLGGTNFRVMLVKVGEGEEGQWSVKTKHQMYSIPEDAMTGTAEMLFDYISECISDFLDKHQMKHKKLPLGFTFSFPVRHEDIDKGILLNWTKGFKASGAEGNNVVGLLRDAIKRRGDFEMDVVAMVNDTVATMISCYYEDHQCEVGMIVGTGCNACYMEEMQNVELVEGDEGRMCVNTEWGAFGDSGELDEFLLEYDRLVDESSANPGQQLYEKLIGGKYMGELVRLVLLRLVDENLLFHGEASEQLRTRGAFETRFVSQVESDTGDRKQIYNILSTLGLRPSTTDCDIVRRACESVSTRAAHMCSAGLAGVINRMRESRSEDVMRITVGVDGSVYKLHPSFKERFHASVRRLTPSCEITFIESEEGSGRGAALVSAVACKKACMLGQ
Excerpt: (§1) An enzymatic Glucokinase (GK) assay using purified recombinant human liver/pancreas enzyme was used to evaluate the effects of potential small molecule modulators.
(§2) In this assay, GK catalyzes glucose phosphorylation in the presence of ATP. The product of this reaction, glucose-6-phosphate, was then oxidized by an excess of glucose-6-phosphate dehydrogenase to produce gluconate-6-phosphate with concomitant reduction of nicotinamide adenine dinucleotide (NAD). […] Human GK (Liver/Pancreas) was expressed in Escherichia coli as a (His) 6-tagged fusion protein and was purified by metal chelate affinity chromatography. The assay was performed in a final incubation volume of 80 μl in a 96-well clear low UV absorption plates. The incubation mixture consisted of 25 mM HEPES, 2 mM MgSO4, 1 mM dithiothreotol (DTT), 1 mg/mL bovine serum albumin (BSA), 1 mM ATP, 1 mM NAD, and 12 mM glucose, 10 units per mL glucose-6-phosphate dehydrogenase, and +/−300 ng per mL GK. For determination of the affinity (Km) and Vmax, different concentrations of glucose ranging from 0.5 mM to 40 mM were used in the assay; see Grimsby, J., Sarabu, R.; Grippo, J. F.; et. al. Science 2003, 301, 370-373. Production of reduced NAD (Nicotinamide Adenine Dinucleotide) was measured as changes in absorption at 340 nm in 96-well plate reader (Envision model #2101 Multilabel Plate reader). % Activation @ 50 μM was calculated as the percentage increase in GK activity above the vehicle control with the effective concentration of the compound being 50 μM. EC50% (μM) was calculated as the effective concentration of the compound that produces 50% activation above the vehicle control, and EC100% (μM) was calculated as the effective concentration of the compound that produces 100% activation above the vehicle control.

[2] = target: T2, human pancreas Glucokinase (GK) (Homo sapiens, UniProt P35557); assay: Glucokinase enzyme assay, pancreas GK; type: biochemical
T2 construct: His6; made in house; host or cells: Escherichia coli
T2 sequence (P35557 1-465): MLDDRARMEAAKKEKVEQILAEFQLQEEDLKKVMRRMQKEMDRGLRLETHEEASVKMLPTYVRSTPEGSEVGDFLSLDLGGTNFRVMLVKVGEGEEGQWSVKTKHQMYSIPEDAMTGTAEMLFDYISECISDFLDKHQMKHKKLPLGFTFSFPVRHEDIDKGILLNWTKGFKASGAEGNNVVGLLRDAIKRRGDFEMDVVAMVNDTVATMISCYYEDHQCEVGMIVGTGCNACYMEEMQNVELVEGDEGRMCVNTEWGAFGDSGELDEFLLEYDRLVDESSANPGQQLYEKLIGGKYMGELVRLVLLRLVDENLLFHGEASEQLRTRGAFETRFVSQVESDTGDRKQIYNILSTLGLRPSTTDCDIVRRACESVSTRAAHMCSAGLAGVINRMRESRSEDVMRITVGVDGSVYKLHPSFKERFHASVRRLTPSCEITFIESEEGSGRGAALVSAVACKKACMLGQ
Excerpt: as §1
as §2, with “Production of reduced NAD (Nicotinamide Adenine Dinucleotide) was measured as changes in absorption at 340 nm in 96-well plate reader (Envision model #2101 Multilabel Plate reader). % Activation @ 50 μM was calculated as the percentage increase in GK activity above the vehicle control with the effective concentration of the compound being 50 μM.” left out

## O=C(CCC1c2ccccc2C(=O)N1Cc1ccccc1)Nc1ccccn1 (stereo not shown) [Compound 3, 3-(2-Benzyl-3-oxo-2,3-dihydro-1H-isoindol-1-yl)-N-pyridin-2-yl-propionamide]
[1]
  EC50: 2520 nM
  EC100%: 8.78 µM

## O=C(NCCC1c2ccccc2C(=O)N1Cc1ccccc1)Nc1nccs1 (stereo not shown) [Compound 4, 1-[2-(2-Benzyl-3-oxo-2,3-dihydro-1H-isoindol-1-yl)-ethyl]-3-thiazol-2-yl-urea]
[1]
  activation at 50 µM: 15%

## O=C(CCC1c2ccccc2C(=O)N1Cc1ccccc1)Nc1ccc(C(=O)O)cn1 (stereo not shown) [Compound 5, 6-[3-(2-Benzyl-3-oxo-2,3-dihydro-1H-isoindol-1-yl)-propionylamino]-nicotinic acid]
[1]
  EC50: 1900 nM
  EC100%: 8 µM
  activation at 50 µM: 138%
[2]; concentration that produces 50% activation above vehicle control
  EC50: 2900 nM
[2]; concentration that produces 100% activation above vehicle control
  EC100%: 18 µM
[2]; increase in GK activity above vehicle control, compound 50 μM, 12 mM glucose
  activation at 50 µM: 306%

## O=C(CCC1c2ccccc2C(=O)N1Cc1ccccc1)Nc1nccs1 (stereo not shown) [Compound 1, 3-(2-Benzyl-3-oxo-2,3-dihydro-1H-isoindol-1-yl)-N-thiazol-2-yl-propionamide]
[1]
  EC50: 15000 nM
  activation at 50 µM: 46%

## COC(=O)c1ccc(NC(=O)CCC2c3ccccc3C(=O)N2Cc2ccccc2)nc1 (stereo not shown) [Compound 2, 6-[3-(2-Benzyl-3-oxo-2,3-dihydro-1H-isoindol-1-yl)-propionylamino]-nicotinic acid methyl ester]
[1]
  EC50: 1290 nM
  EC100%: 8.39 µM
